Assays:
Assay type in all cases: cell-based
A375 melanoma cell line = test: SRB analysis 3; conditions: 48 hours
Procedure: (§1) Through SRB analysis (n=3), the effect of triple combination treatment of a CAC inhibitor (KN510: omeprazole), ACAA inhibitor (KN713: trimetazidine) and other anticancer drug on cell growth in the cancer cells was analyzed. (see Table 11).
(§2) The SRB assay was performed as follows: each cell line (100 μl) was seeded into 96-well microtiter plates at densities ranging from 5,000 to 40,000 cells/well depending on the doubling time of each cell line. After 24 hours, drug (100 μl per well) was added to each well and the culture was incubated at 37° C. for 48 hours. Cells were then fixed in 50% TCA (50 μl per well) and plates were incubated at 4° C. for a minimum of 1 hour or a maximum of 3 hours. After that, the liquid was removed from the plate, then rinsed 5 times with water and dried for approximately 12-24 hours at room temperature (RT). After the fixed cells were stained with 0.4% SRB (100 μl per well) for 10 minutes at room temperature, the plates were washed 3 times with 1% glacial acetic acid and dried at room temperature for about 12-24 hours. SRB staining was dissolved in 10 mM Trizma base and absorbance was read at 515 nm. The effect of the drug was expressed as GI50 (50% growth inhibition), TGI (total growth inhibition) or LC50 (lethal concentration). GI50 is the maximum concentration at the moment of 50% inhibition of cell proliferation and IC50 is the concentration of the drug that inhibits the enzyme activity in vitro by 50% in this study.

[1] = system: A549 non-small cell lung cancer (NSCLC) cell line; test: SRB analysis 3; conditions: 48 hours
Procedure: as §1, §2

[2] = system: ACHN renal cancer cell line; test: SRB analysis 3; conditions: 48 hours
Procedure: as §1, §2

[3] = system: AGS gastric cancer cell line; test: SRB analysis 3; conditions: 48 hours
Procedure: as §1, §2

[4] = system: AsPC-1 pancreatic cancer (PDAC) cell line; test: SRB analysis 3; conditions: 48 hours
Procedure: as §1, §2

[5] = system: COLO-205 colon cancer cell line; test: SRB analysis 3; conditions: 48 hours
Procedure: as §1, §2

[6] = system: Caki-1 renal cancer cell line; test: SRB analysis 3; conditions: 48 hours
Procedure: as §1, §2

[7] = system: DU145 prostate cancer cell line; test: SRB analysis 3; conditions: 48 hours
Procedure: as §1, §2

[8] = system: H1975 non-small cell lung cancer (NSCLC) cell line; test: SRB analysis 3; conditions: 48 hours
Procedure: as §1, §2

[9] = system: HCT-116 colon cancer cell line; test: SRB analysis 3; conditions: 48 hours
Procedure: as §1, §2

[10] = system: Huh-7 liver cancer cell line; test: SRB analysis 3; conditions: 48 hours
Procedure: as §1, §2

[11] = system: MCF7 breast cancer cell line; test: SRB analysis 3; conditions: 48 hours
Procedure: as §1, §2

[12] = system: MDA-MB-231 breast cancer cell line; test: SRB analysis 3; conditions: 48 hours
Procedure: as §1, §2

[13] = system: MIA PaCa-2 pancreatic cancer (PDAC) cell line; test: SRB analysis 3; conditions: 48 hours
Procedure: as §1, §2

[14] = system: MKN45 gastric cancer cell line; test: SRB analysis 3; conditions: 48 hours
Procedure: as §1, §2

[15] = system: OVCAR-8 ovarian cancer cell line; test: SRB analysis 3; conditions: 48 hours
Procedure: as §1, §2

[16] = system: PC-3 prostate cancer cell line; test: SRB analysis 3; conditions: 48 hours
Procedure: as §1, §2

[17] = system: SK-OV-3 ovarian cancer cell line; test: SRB analysis 3; conditions: 48 hours
Procedure: as §1, §2

[18] = system: SK-hep-1 liver cancer cell line; test: SRB analysis 3; conditions: 48 hours
Procedure: as §1, §2

[19] = system: UACC62 melanoma cell line; test: SRB analysis 3; conditions: 48 hours
Procedure: as §1, §2

[20] = system: T87G glioblastoma (GBM) cell line; test: SRB analysis 3; conditions: 48 hours
Procedure: as §2, with “Through SRB analysis (n=3), the effect of triple combination treatment of a CAC inhibitor ([…] inhibitor (KN713: trimetazidine) and other anticancer drug on cell growth in the cancer cells was analyzed. (see Table 11). The” for “The”, “nm.” for “nm. The effect of the drug was expressed as GI50 (50% growth inhibition), TGI (total growth inhibition) or LC50 (lethal concentration). GI50 is the maximum concentration at the moment of 50% inhibition of cell proliferation and IC50 is the concentration of the drug that inhibits the enzyme activity in vitro by 50% in this study.”

[21] = system: U87MG glioblastoma (GBM) cell line; test: SRB analysis 3; conditions: 48 hours
Procedure: as §2, with “Through SRB analysis (n=3), the effect of triple combination treatment of a CAC inhibitor ([…] inhibitor (KN713: trimetazidine) and other anticancer drug on cell growth in the cancer cells was analyzed. (see Table 11). The” for “The”, “nm.” for “nm. The effect of the drug was expressed as GI50 (50% growth inhibition), TGI (total growth inhibition) or LC50 (lethal concentration). GI50 is the maximum concentration at the moment of 50% inhibition of cell proliferation and IC50 is the concentration of the drug that inhibits the enzyme activity in vitro by 50% in this study.”

cancer cells = test: SRB analysis 3, triple combination, summary over cancer panels
Procedure: as §1, §2

[22] = Breast Cancer, BT-549, MDA MB 231
[23] = Ovarian Cancer, SK-OV-3, OVCAR-3
[24] = Renal cell carcinoma, ACHN, CAKI-1

SMILES: CCc1c2c(nc3ccc(OC(=O)N4CCC(N5CCCCC5)CC4)cc13)-c1cc3c(c(=O)n1C2)COC(=O)[C@]3(O)CC [Irinotecan]
- cell growth (Control = 100) (A375 melanoma cell line; Irinotecan 2.5 μM): −23.32
- cell growth (Control = 100) ([1]; Irinotecan 2.5 μM): 17.6
- cell growth (Control = 100) ([2]; Irinotecan 2.5 μM): −43.8973
- cell growth (Control = 100) ([3]; Irinotecan 2.5 μM): 13.58
- cell growth (Control = 100) ([4]; Irinotecan 2.5 μM): 45.75
- cell growth (Control = 100) ([5]; Irinotecan 2.5 μM): 10.02
- cell growth (Control = 100) ([6]; Irinotecan 2.5 μM): 22.65
- cell growth (Control = 100) ([7]; Irinotecan 5 μM): 28.6
- cell growth (Control = 100) ([8]; Irinotecan 2.5 μM): 25.71
- cell growth (Control = 100) ([9]; Irinotecan 2.5 μM): −0.3443
- cell growth (Control = 100) ([10]; Irinotecan 2.5 μM): 15.47
- cell growth (Control = 100) ([11]; Irinotecan 2.5 μM): 7.427
- cell growth (Control = 100) ([12]; Irinotecan 2.5 μM): 78.25
- cell growth (Control = 100) ([13]; Irinotecan 2.5 μM): 2.59
- cell growth (Control = 100) ([14]; MKN45, Irinotecan 2.5 μM): 40.94
- cell growth (Control = 100) ([15]; Irinotecan 2.5 μM): 36.34
- cell growth (Control = 100) ([16]; Irinotecan 5 μM): 37.7
- cell growth (Control = 100) ([17]; Irinotecan 2.5 μM): 13.57
- cell growth (Control = 100) ([18]; Irinotecan 2.5 μM): −15.5188
- cell growth (Control = 100) ([19]; Irinotecan 2.5 μM): −13.35
- cell growth (Control = 100) ([20]; Irinotecan 2.5 μM): 71.53
- cell growth (Control = 100) ([21]; Irinotecan 2.5 μM): 6.31
- Positive/Negative (triple combination of KN510, KN713 and the listed anticancer drug) (cancer cells; [22]): Positive
- Positive/Negative (triple combination of KN510, KN713 and the listed anticancer drug) (cancer cells; Colon Cancer, HT-29, COLO-205): negative
- Positive/Negative (triple combination of KN510, KN713 and the listed anticancer drug) (cancer cells; GBM, U87MG, T87G): Positive
- Positive/Negative (triple combination of KN510, KN713 and the listed anticancer drug) (cancer cells; Liver Cancer, SNU-449, Huh-7): negative
- Positive/Negative (triple combination of KN510, KN713 and the listed anticancer drug) (cancer cells; NSCLC, A549, H522): Positive
- Positive/Negative (triple combination of KN510, KN713 and the listed anticancer drug) (cancer cells; [23]): negative
- Positive/Negative (triple combination of KN510, KN713 and the listed anticancer drug) (cancer cells; PDAC, MIA PaCa-2, PANC-1): Positive
- Positive/Negative (triple combination of KN510, KN713 and the listed anticancer drug) (cancer cells; Prostate Cancer, PC-3, DU-145): Positive
- Positive/Negative (triple combination of KN510, KN713 and the listed anticancer drug) (cancer cells; [24]): negative
- Positive/Negative (triple combination of KN510, KN713 and the listed anticancer drug) (cancer cells; Stomach Cancer, MKN-28, AGS): Positive
- Positive/Negative (triple combination of KN510, KN713 and the listed anticancer drug) (cancer cells; melanoma, UACC62, A375): Positive

SMILES: CC(=O)O[C@H]1C(=O)[C@@]2(C)[C@H]([C@H](OC(=O)c3ccccc3)[C@]3(O)C[C@H](OC(=O)[C@H](O)[C@@H](NC(=O)c4ccccc4)c4ccccc4)C(C)=C1C3(C)C)[C@]1(OC(C)=O)CO[C@@H]1C[C@@H]2O [Paclitaxel]
- cell growth (Control = 100) (A375 melanoma cell line; Paclitaxel 10 nM): 40.20
- cell growth (Control = 100) ([1]; Paclitaxel 10 nM): 17.6
- cell growth (Control = 100) ([2]; Paclitaxel 10 nM): 105.2409
- cell growth (Control = 100) ([3]; Paclitaxel 20 nM): 20.3903
- cell growth (Control = 100) ([4]; Paclitaxel 10 nM): 41.94
- cell growth (Control = 100) ([5]; Paclitaxel 10 nM): −8.628
- cell growth (Control = 100) ([6]; Paclitaxel 10 nM): 128.124
- cell growth (Control = 100) ([7]; Paclitaxel 10 nM): 46.381
- cell growth (Control = 100) ([8]; Paclitaxel 10 nM): 45.06
- cell growth (Control = 100) ([9]; Paclitaxel 10 nM): 15.07
- cell growth (Control = 100) ([10]; Paclitaxel 10 μM): 63.01
- cell growth (Control = 100) ([11]; Paclitaxel 10 μM): 17.28
- cell growth (Control = 100) ([12]; Paclitaxel 10 μM): 70.48
- cell growth (Control = 100) ([13]; Paclitaxel 10 nM): 16.4
- cell growth (Control = 100) ([14]; MKN-45, Paclitaxel 20 nM): 8.846
- cell growth (Control = 100) ([15]; Paclitaxel 10 μM): 76.61
- cell growth (Control = 100) ([16]; Paclitaxel 10 nM): 47.85
- cell growth (Control = 100) ([17]; Paclitaxel 10 μM): 62.41
- cell growth (Control = 100) ([18]; Paclitaxel 10 μM): 78.76
- cell growth (Control = 100) ([19]; Paclitaxel 10 nM): 65.90
- cell growth (Control = 100) ([20]; Paclitaxel 10 nM): 56.70
- cell growth (Control = 100) ([21]; Paclitaxel 10 nM): 28.87
- Positive/Negative (triple combination of KN510, KN713 and the listed anticancer drug) (cancer cells; [22]): Positive
- Positive/Negative (triple combination of KN510, KN713 and the listed anticancer drug) (cancer cells; Colon Cancer, HT-29, COLO-205): Positive
- Positive/Negative (triple combination of KN510, KN713 and the listed anticancer drug) (cancer cells; GBM, U87MG, T87G): Positive
- Positive/Negative (triple combination of KN510, KN713 and the listed anticancer drug) (cancer cells; Liver Cancer, SNU-449, Huh-7): Positive
- Positive/Negative (triple combination of KN510, KN713 and the listed anticancer drug) (cancer cells; NSCLC, A549, H522): Positive
- Positive/Negative (triple combination of KN510, KN713 and the listed anticancer drug) (cancer cells; [23]): Positive
- Positive/Negative (triple combination of KN510, KN713 and the listed anticancer drug) (cancer cells; PDAC, MIA PaCa-2, PANC-1): Positive
- Positive/Negative (triple combination of KN510, KN713 and the listed anticancer drug) (cancer cells; Prostate Cancer, PC-3, DU-145): Positive
- Positive/Negative (triple combination of KN510, KN713 and the listed anticancer drug) (cancer cells; [24]): negative
- Positive/Negative (triple combination of KN510, KN713 and the listed anticancer drug) (cancer cells; Stomach Cancer, MKN-28, AGS): Positive
- Positive/Negative (triple combination of KN510, KN713 and the listed anticancer drug) (cancer cells; melanoma, UACC62, A375): Positive

From patent publication US12728119B2, “Pharmaceutical composition for preventing or treating cancer comprising 3-ketoacyl CoA thiolase inhibitor and carnitine acylcarnitine carrier inhibitor” (NATIONAL CANCER CENTER, priority 2020, dated 2026)
